“And” between values parts separate entries of the source, which are not always exact repeats. Identical values can stand only once. Inconclusive results and toxic doses are left out. Numbered stars: 1 amine (or outer) side, 2 acyl side, 3 side chain; on linkers, the order of the positions; unused ones are H or OH. Bridge positions count the residues as written; N and C are the ends. Square brackets hold non-standard residues; d marks the D form. Peptide text beside a SMILES is read from it. I, II: the chains in the order shown. Actinocin(9to1) = Cc1c2oc3c(C)ccc(C(=O)[*:1])c3nc-2c(C(=O)[*:2])c(N)c1=O; aThr = C[C@H](O)[C@H](N)C(=O)O; NMeV = CN[C@H](C(=O)O)C(C)C; Sar = CNCC(=O)O
Tested on: BDF1 mice, L1210 leukemia sc, survival T/C
Test: NCI In Vivo Anticancer Drug Screen. Data for tumor model L1210 Leukemia (subcutaneous) in B6D2F1 (BDF1) mice
Details: endpoint: median survival time, higher = longer survival
Summary of the method: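 Transplantable tumor-bearing mice; survival or tumor size recorded; result = T/C, treated vs vehicle control.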

With O=c1[nH]c(=O)n(C2CC(O)C(CO)O2)cc1F (configuration not stated) the T/C (dose: 4.0 mg/kg/injection, schedule: Q01DX Z (sc), vehicle: saline) was 100 % of control, the T/C (dose: 5.0 mg/kg/injection, schedule: Q01DX009 (ip), vehicle: water) was 100 % of control and the T/C (dose: 5.0 mg/kg/injection, schedule: Q01DX009 (sc), vehicle: water) was 101 % of control. For the same molecule, the T/C (dose: 8.0 mg/kg/injection, schedule: Q01DX Z (sc), vehicle: saline) was 100 % of control, the T/C (dose: 10.0 mg/kg/injection, schedule: Q01DX009 (ip), vehicle: water) was 97 % of control and the T/C (dose: 10.0 mg/kg/injection, schedule: Q01DX009 (sc), vehicle: water) was 98 % of control. For the same molecule, the T/C (dose: 16.0 mg/kg/injection, schedule: Q01DX Z (sc), vehicle: saline) was 111 % of control, the T/C (dose: 20.0 mg/kg/injection, schedule: Q01DX009 (ip), vehicle: water) was 101 % of control and the T/C (dose: 20.0 mg/kg/injection, schedule: Q01DX009 (sc), vehicle: water) was 104 % of control. The T/C (dose: 23.0 mg/kg/injection, schedule: Q01DX Z (sc), vehicle: saline) was 100 % of control, the T/C (dose: 23.3 mg/kg/injection, schedule: Q01DX Z (sc), vehicle: saline) was 104 % of control and the T/C (dose: 32.0 mg/kg/injection, schedule: Q01DX Z (sc), vehicle: saline) was 111 % of control. For the same molecule, the T/C (dose: 38.9 mg/kg/injection, schedule: Q01DX Z (sc), vehicle: saline) was 91 % of control, the T/C (dose: 39.0 mg/kg/injection, schedule: Q01DX Z (sc), vehicle: saline) was 100 % of control and the T/C (dose: 40.0 mg/kg/injection, schedule: Q01DX009 (ip), vehicle: water) was 110 % of control. For the same molecule, the T/C (dose: 40.0 mg/kg/injection, schedule: Q01DX009 (sc), vehicle: water) was 121 % of control, the T/C (dose: 50.0 mg/kg/injection, schedule: Q01DX009 (sc), vehicle: water) was 100 % of control and the T/C (dose: 64.0 mg/kg/injection, schedule: Q01DX Z (sc), vehicle: saline) was 105 % of control. The T/C (dose: 64.8 mg/kg/injection, schedule: Q01DX Z (sc), vehicle: saline) was 100 % of control, the T/C (dose: 65.0 mg/kg/injection, schedule: Q01DX Z (sc), vehicle: saline) was 100 % of control and 105 % of control and the T/C (dose: 80.0 mg/kg/injection, schedule: Q01DX009 (ip), vehicle: water) was 124 % of control. The T/C (dose: 100.0 mg/kg/injection, schedule: Q01DX009 (sc), vehicle: water) was 110 % of control, the T/C (dose: 200.0 mg/kg/injection, schedule: Q01DX009 (sc), vehicle: water) was 150 % of control and the T/C (dose: 256.0 mg/kg/injection, schedule: Q01DX Z (sc), vehicle: saline) was 161 % of control. For the same molecule, the T/C (dose: 400.0 mg/kg/injection, schedule: Q01DX009 (sc), vehicle: water) was 153 % of control.
For Cc1c2oc3c(C)ccc(C(=O)N[C@@H]4C(=O)N[C@H](C(C)C)C(=O)N5CCC[C@H]5C(=O)N(C)CC(=O)N(C)[C@@H](C(C)C)C(=O)O[C@H]4C)c3nc-2c(C(=O)N[C@@H]2C(=O)N[C@H](C(C)C)C(=O)N3CCC[C@H]3C(=O)N(C)CC(=O)N(C)[C@@H](C(C)C)C(=O)O[C@H]2C)c(N)c1=O (I: [aThr][dV]P[Sar][NMeV] / II: [aThr][dV]P[Sar][NMeV]; ester I:1-I:C, II:1-II:C; linker I:N-II:N via Actinocin(9to1)), the T/C (dose: 0.07 mg/kg/injection, schedule: Q01DX009 (sc), vehicle: saline) was 95 % of control, the T/C (dose: 0.07 mg/kg/injection, schedule: Q01DX Z (sc), vehicle: saline) was 110 % of control and the T/C (dose: 0.15 mg/kg/injection, schedule: Q01DX009 (sc), vehicle: saline) was 103 % of control. The T/C (dose: 0.3 mg/kg/injection, schedule: Q01DX009 (sc), vehicle: saline) was 106 % of control, the T/C (dose: 0.52 mg/kg/injection, schedule: Q01DX Z (sc), vehicle: saline) was 120 % of control and the T/C (dose: 0.86 mg/kg/injection, schedule: Q01DX Z (sc), vehicle: saline) was 120 % of control.
CCCC(=O)OCC1OC(n2cnc3c(=S)nc(N)[nH]c32)C(OC(=O)CCC)C1OC(=O)CCC (configuration not stated) was tested, and the T/C (dose: 14.0 mg/kg/injection, schedule: Q01DX Z (sc), vehicle: carboxymethylcellulose (CMC)) was 112 % of control, the T/C (dose: 23.0 mg/kg/injection, schedule: Q01DX Z (sc), vehicle: carboxymethylcellulose (CMC)) was 100 % of control and the T/C (dose: 39.0 mg/kg/injection, schedule: Q01DX Z (sc), vehicle: carboxymethylcellulose (CMC)) was 112 % of control. For the same molecule, the T/C (dose: 65.0 mg/kg/injection, schedule: Q01DX Z (sc), vehicle: carboxymethylcellulose (CMC)) was 175 % of control, the T/C (dose: 108.0 mg/kg/injection, schedule: Q01DX Z (sc), vehicle: carboxymethylcellulose (CMC)) was 168 % of control and the T/C (dose: 180.0 mg/kg/injection, schedule: Q01DX Z (sc), vehicle: carboxymethylcellulose (CMC)) was 150 % of control.
